According to PMC12042115 (mLife, 2025):

Tested on: wild‐type BCG cells
Assay type: cell-based, M. bovis BCG
Details: up-regulated

O=C(Oc1ccc(Cl)cc1)c1ccc(N2CCOCC2)c([N+](=O)[O-])c1 [GDI‐5755]
1.9: Mean_Ratio (GDI5755_3d vs DMSO_3d), protein BCG_0883 (A1KGW3, Mtb Rv0830, S-adenosyl-L-methionine-dependent methyltransferase)
2.1: Mean_Ratio (GDI5755_3d vs DMSO_3d), protein BCG_0761 (A0A0H3M268, Mtb Rv0711, Possible arylsulfatase atsA)
2.8: Mean_Ratio (GDI5755_3d vs DMSO_3d), protein BCG_0182 (A1KEW6, Mtb Rv0146, Putative S-adenosyl-L-methionine-dependent methyltransferase)
1.7: Mean_Ratio (GDI5755_3d vs DMSO_3d), protein BCG_3567c (A0A0H3M9P9, Mtb Rv3503c, Ferredoxin, fdxD) | Mean_Ratio (GDI5755_3d vs DMSO_3d), protein BCG_0108c (A0A0H3M9Q4, Mtb Rv0077c, Probable oxidoreductase) | Mean_Ratio (GDI5755_3d vs DMSO_3d), protein BCG_0465c (A0A0H3M812, Mtb MRA_0431, Possible transmembrane protein) | Mean_Ratio (GDI5755_3d vs DMSO_3d), protein BCG_0380 (A0A0H3MAC3, Mtb Rv0341, Isoniazid inductible gene protein iniB) | Mean_Ratio (GDI5755_3d vs DMSO_3d), protein BCG_3319c (A0A0H3MAV3, Mtb Rv3290c, L-lysine 6-transaminase, lat) | Mean_Ratio (GDI5755_3d vs DMSO_3d), protein BCG_2486c (A0A0H3MFK9, Mtb Rv2466c, DSBA-like thioredoxin domain-containing protein)
1.3: Mean_Ratio (GDI5755_3d vs DMSO_3d), protein BCG_2009c (A0A0H3M639, Mtb Rv1992c, Probable metal cation transporter P-type atpase G ctpG) | Mean_Ratio (GDI5755_3d vs DMSO_3d), protein BCG_2455 (A0A0H3M775, Mtb Rv2436, Ribokinase, rbsK) | Mean_Ratio (GDI5755_3d vs DMSO_3d), protein BCG_0993 (A0A0H3M955, Mtb Rv0939, Possible bifunctional enzyme: 2-hydroxyhepta-2,4-diene-1,7-dioate isomerase + cyclase/dehydrase) | Mean_Ratio (GDI5755_3d vs DMSO_3d), protein BCG_3038 (A0A0H3MA42, Mtb Rv3016, Probable lipoprotein lpqA) | Mean_Ratio (GDI5755_3d vs DMSO_3d), protein BCG_3758 (A0A0H3MAA8, Mtb Rv3699, Methyltransferase domain-containing protein) | Mean_Ratio (GDI5755_3d vs DMSO_3d), protein BCG_0516 (A1KFU9, Mtb Rv0475, Heparin-binding hemagglutinin)
2.5: Mean_Ratio (GDI5755_3d vs DMSO_3d), protein BCG_0605c (A1KG37, Mtb Rv0560c, Benzoquinone methyltransferase/Rv0560c/htm)
1.8: Mean_Ratio (GDI5755_3d vs DMSO_3d), protein BCG_2010c (A0A0H3M561, Mtb Rv1993c, DUF1490 family protein) | Mean_Ratio (GDI5755_3d vs DMSO_3d), protein BCG_2346c (A0A0H3M622, Mtb Rv2325c, Energy-coupling factor transporter transmembrane protein EcfT) | Mean_Ratio (GDI5755_3d vs DMSO_3d), protein BCG_0181 (A1KEW5, Mtb Rv0145, S-adenosyl-L-methionine-dependent methyltransferase BCG_0181)
2.3: Mean_Ratio (GDI5755_3d vs DMSO_3d), protein BCG_3298 (A0A0H3MAT3, Mtb Rv3269, peptidoglycan-based cell wall/chaperonin-like protein,pacL1) | Mean_Ratio (GDI5755_3d vs DMSO_3d), protein BCG_0248 (A1KF31, Mtb Rv0211, Phosphoenolpyruvate carboxykinase [GTP], pckG)
1.6: Mean_Ratio (GDI5755_3d vs DMSO_3d), protein BCG_1609 (A0A0H3M480, Mtb Rv1557, conserved transmembrane transport protein mmpL6) | Mean_Ratio (GDI5755_3d vs DMSO_3d), protein BCG_0413c (A0A0H3MAE2, Mtb Rv0375c, carbon monoxyde dehydrogenase (Medium chain)) | Mean_Ratio (GDI5755_3d vs DMSO_3d), protein BCG_3928 (A0A0H3MAW6, Mtb Rv3865, ESX-1 secretion-associated protein EspF) | Mean_Ratio (GDI5755_3d vs DMSO_3d), protein BCG_0725c (A0A0H3MAX0, Mtb Rv0676c,, conserved transmembrane transport protein mmpL5) | Mean_Ratio (GDI5755_3d vs DMSO_3d), protein BCG_3476 (A0A0H3MB64, Mtb Rv3406, Probable dioxygenase) | Mean_Ratio (GDI5755_3d vs DMSO_3d), protein BCG_2613 (A0A0H3MCY6, Mtb Rv2590, Carboxylic acid reductase,fadD9) | Mean_Ratio (GDI5755_3d vs DMSO_3d), protein BCG_3591 (A0A0H3MID2, Mtb Rv3527, Uncharacterized protein)
3.9: Mean_Ratio (GDI5755_3d vs DMSO_3d), protein BCG_0289c (A0A0H3MA45, Mtb Rv0251c, HSP20 family protein/ Heat stress induced ribosome-binding protein A,acr2)
1.5: Mean_Ratio (GDI5755_3d vs DMSO_3d), protein BCG_0727 (A0A0H3M257, Mtb Rv0678, Transcriptional regulator, MmpR5) | Mean_Ratio (GDI5755_3d vs DMSO_3d), protein BCG_0351 (A0A0H3M331, Mtb MRA_0320, Uncharacterized protein) | Mean_Ratio (GDI5755_3d vs DMSO_3d), protein BCG_0391 (A0A0H3M380, Mtb Rv0352, Chaperone protein DnaJ) | Mean_Ratio (GDI5755_3d vs DMSO_3d), protein BCG_1549 (A0A0H3M660, Mtb MRA_1496, Conserved membrane protein) | Mean_Ratio (GDI5755_3d vs DMSO_3d), protein BCG_3281c (A0A0H3MAS0, Mtb Rv3252c, transmembrane alkane 1-monooxygenase alkB) | Mean_Ratio (GDI5755_3d vs DMSO_3d), protein BCG_1890c (A0A0H3MB87, Mtb Rv1854c, NADH dehydrogenase ndh) | Mean_Ratio (GDI5755_3d vs DMSO_3d), protein BCG_2794c (A0A0H3MGD9, Mtb Rv2777c, Metal-dependent hydrolase) | Mean_Ratio (GDI5755_3d vs DMSO_3d), protein BCG_2984 (A0A0H3MGS1, Mtb Rv2963, integral membrane protein) | Mean_Ratio (GDI5755_3d vs DMSO_3d), protein BCG_3299 (A0A0H3MHJ0, Mtb Rv3270, metal cation-transporting P-type atpase C ctpC) | Mean_Ratio (GDI5755_3d vs DMSO_3d), protein BCG_3917c (A0A0H3MJE2, Mtb Rv3854c, Monooxygenase ethA) | Mean_Ratio (GDI5755_3d vs DMSO_3d), protein BCG_0389 (A1KFH2, Mtb Rv0350, Chaperone protein DnaK/Heat shock protein 70)
1.4: Mean_Ratio (GDI5755_3d vs DMSO_3d), protein BCG_0192 (A0A0H3M9W8, Mtb Rv0156, proton-translocating NAD(P)(+) transhydrogenase,pntAb) | Mean_Ratio (GDI5755_3d vs DMSO_3d), protein BCG_0463c (A0A0H3M270, Mtb Rv0424c, Uncharacterized protein) | Mean_Ratio (GDI5755_3d vs DMSO_3d), protein BCG_0835 (A0A0H3M322, Mtb Rv0784, Deacetylase) | Mean_Ratio (GDI5755_3d vs DMSO_3d), protein BCG_2360c (A0A0H3M719, Mtb Rv2338c, Possible molybdopterin biosynthesis protein moeW) | Mean_Ratio (GDI5755_3d vs DMSO_3d), protein BCG_0517 (A0A0H3M881, Mtb Rv0476, Possible conserved transmembrane protein) | Mean_Ratio (GDI5755_3d vs DMSO_3d), protein BCG_2934c (A0A0H3M896, Mtb Rv2913c, Possible D-amino acid aminohydrolase) | Mean_Ratio (GDI5755_3d vs DMSO_3d), protein BCG_3532 (A0A0H3M969, HNH nuclease domain-containing protein) | Mean_Ratio (GDI5755_3d vs DMSO_3d), protein BCG_3881 (A0A0H3MA52, Mtb Rv3819, Uncharacterized protein) | Mean_Ratio (GDI5755_3d vs DMSO_3d), protein BCG_0595c (A0A0H3MAN8, Mtb Rv0550c, Antitoxin VapB3) | Mean_Ratio (GDI5755_3d vs DMSO_3d), protein BCG_3239 (A0A0H3MAP0, Conserved hypothetical alanine valine rich protein) | Mean_Ratio (GDI5755_3d vs DMSO_3d), protein BCG_0774 (A0A0H3MAY5, Mtb Rv0724, Possible protease IV sppA (Endopeptidase IV)) | Mean_Ratio (GDI5755_3d vs DMSO_3d), protein BCG_3590 (A0A0H3MBE7, Mtb Rv3526, Rieske-type oxygenase) | Mean_Ratio (GDI5755_3d vs DMSO_3d), protein BCG_2026 (A0A0H3MBK2, Mtb Rv2009, Antitoxin VapB15, BCG_2026) | Mean_Ratio (GDI5755_3d vs DMSO_3d), protein BCG_2056c (A0A0H3MBM9, Mtb MRA_2052, conserved transmembrane protein) | Mean_Ratio (GDI5755_3d vs DMSO_3d), protein BCG_1028c (A0A0H3MBR5, Mtb Rv0974c, Probable acetyl-/propionyl-coa carboxylase (Beta subunit) accD2) | Mean_Ratio (GDI5755_3d vs DMSO_3d), protein BCG_3824c (A0A0H3MBY6, Mtb Rv3765c, Two component transcriptional regulatory protein，TcrX) | Mean_Ratio (GDI5755_3d vs DMSO_3d), protein BCG_1101c (A0A0H3MBZ0, Mtb Rv1043c, Serine protease，BCG_1101c) | Mean_Ratio (GDI5755_3d vs DMSO_3d), protein BCG_2656 (A0A0H3MD16, Mtb Rv2629, Uncharacterized protein) | Mean_Ratio (GDI5755_3d vs DMSO_3d), protein BCG_3528 (A0A0H3MEV5, Mtb Rv3463, Luciferase-like domain-containing protein) | Mean_Ratio (GDI5755_3d vs DMSO_3d), protein BCG_2502c (A0A0H3MFM6, Mtb Rv2484c, Diacylglycerol O-acyltransferase) | Mean_Ratio (GDI5755_3d vs DMSO_3d), protein BCG_2658 (A0A0H3MG12, Mtb Rv2631, tRNA-splicing ligase RtcB) | Mean_Ratio (GDI5755_3d vs DMSO_3d), protein BCG_3119c (A0A0H3MH35, Mtb Rv3094c, Hydroxylase) | Mean_Ratio (GDI5755_3d vs DMSO_3d), protein BCG_0095 (A1KEN2, Mtb Rv0064, UPF0182 protein BCG_0095) | Mean_Ratio (GDI5755_3d vs DMSO_3d), protein BCG_0390 (A1KFH3, Mtb Rv0351, Protein GrpE/HSP-70 cofactor) | Mean_Ratio (GDI5755_3d vs DMSO_3d), protein BCG_1036 (A1KHB7, Mtb Rv0981, Response regulator MprA) | Mean_Ratio (GDI5755_3d vs DMSO_3d), protein BCG_1284 (A1KI12, Mtb Rv1224, Sec-independent protein translocase protein TatB)
